Active and inactive are the calls of the source. The rule behind the calls is not given here.
Key:
Cholinesterase [1] = biological target: T1, Cholinesterase (Equus caballus, UniProt P81908); assay: Inhibition of equine serum BChE using butyrylthiocholine as substrate preincubated for 20 mins followed by substrate addition and measured upto 5 mins by Ellman's method
Acetylcholinesterase [2] = biological target: Acetylcholinesterase (Electrophorus electricus, UniProt O42275); assay: Inhibition of electric eel AChE using acetylthiocholine iodide as substrate preincubated for 20 mins followed by substrate addition and measured upto 5 mins by Ellman's method
[3] = Selectivity index, ratio of IC50 for electric eel AChE to IC50 for equine serum BuChE
[4] = Aqueous solubility of the compound in phosphate buffered saline at pH 7.4 by reverse phase HPLC analysis; type: physicochemical
[5] = biological target: Amyloid-beta precursor protein (Homo sapiens) (UniProt P05067); assay: Inhibition of HFIP treated amyloid beta (1 to 40) (unknown origin) self-induced aggregation at 100 uM measured after 2 hrs by Thioflavin T fluorescence assay relative to control
[6] = Selectivity index, ratio of IC50 for electric eel AChE to IC50 for human BuChE
Cholinesterase [7] = biological target: T1, Cholinesterase; assay: Mixed type inhibition of equine serum BChE assessed as Ki using butyrylthiocholine as substrate preincubated for 20 mins followed by substrate addition and measured upto 5 mins by Ellman's method based Lineweaver-Burk plot analysis
SH-SY5Y [8] = assay: Neuroprotection activity against amyloid beta (1 to 42)-induced toxicity in human SH-SY5Y cells assessed as recovery of viability at 5 uM measured after 24 hrs by MTT assay relative to control; type: functional
SH-SY5Y [9] = assay: Cytotoxicity in human SH-SY5Y cells assessed as decrease in cell viability at 5 uM measured after 48 hrs by MTT assay relative to control; type: cell-based
Acetylcholinesterase [10] = biological target: Acetylcholinesterase (Homo sapiens, UniProt P22303); assay: Inhibition of human AChE using acetylthiocholine iodide as substrate preincubated for 20 mins followed by substrate addition and measured upto 5 mins by Ellman's method
SH-SY5Y [11] = assay: Neuroprotective activity against H2O2-induced oxidative stress in human SH-SY5Y cells assessed as reduction in ROS generation preincubated for 1 hr followed by DCFH-DA addition for 30 mins and subsequent co-treatment with compound and H2O2 for 30 min by fluorescence assay; type: functional, cell-based
SH-SY5Y [12] = assay: Neuroprotection activity against amyloid beta (1 to 42)-induced cytotoxicity in human SH-SY5Y cells assessed as recovery of viability at 5 uM by MTT assay; type: functional, cell-based; conditions: TDE = time-dependent effect
SH-SY5Y [13] = assay: Neuroprotection activity against amyloid beta (1 to 42)-induced cytotoxicity in human SH-SY5Y cells assessed as recovery of viability at 5 uM measured after 48 hrs by MTT assay relative to control; type: functional
Cholinesterase [14] = biological target: Cholinesterase (Homo sapiens, UniProt P06276); assay: Inhibition of human BChE using butyrylthiocholine as substrate preincubated for 20 mins followed by substrate addition and measured upto 5 mins by Ellman's method
SH-SY5Y [15] = assay: Neuroprotective activity against H2O2-induced oxidative stress in human SH-SY5Y cells assessed as reduction in ROS generation at 100 uM preincubated for 1 hr followed by DCFH-DA addition for 30 mins and subsequent co-treatment with compound and H2O2 for 30 min by fluorescence assay; type: functional, cell-based
[16] = biological target: Amyloid-beta precursor protein (Homo sapiens) (UniProt P05067); assay: Inhibition of HFIP treated amyloid beta (1 to 40) (unknown origin) self-induced aggregation at 100 uM measured after 2 hrs by Thioflavin T fluorescence assay

Acetylcholinesterase (Electrophorus electricus, UniProt O42275), sequence (O42275 whole entry): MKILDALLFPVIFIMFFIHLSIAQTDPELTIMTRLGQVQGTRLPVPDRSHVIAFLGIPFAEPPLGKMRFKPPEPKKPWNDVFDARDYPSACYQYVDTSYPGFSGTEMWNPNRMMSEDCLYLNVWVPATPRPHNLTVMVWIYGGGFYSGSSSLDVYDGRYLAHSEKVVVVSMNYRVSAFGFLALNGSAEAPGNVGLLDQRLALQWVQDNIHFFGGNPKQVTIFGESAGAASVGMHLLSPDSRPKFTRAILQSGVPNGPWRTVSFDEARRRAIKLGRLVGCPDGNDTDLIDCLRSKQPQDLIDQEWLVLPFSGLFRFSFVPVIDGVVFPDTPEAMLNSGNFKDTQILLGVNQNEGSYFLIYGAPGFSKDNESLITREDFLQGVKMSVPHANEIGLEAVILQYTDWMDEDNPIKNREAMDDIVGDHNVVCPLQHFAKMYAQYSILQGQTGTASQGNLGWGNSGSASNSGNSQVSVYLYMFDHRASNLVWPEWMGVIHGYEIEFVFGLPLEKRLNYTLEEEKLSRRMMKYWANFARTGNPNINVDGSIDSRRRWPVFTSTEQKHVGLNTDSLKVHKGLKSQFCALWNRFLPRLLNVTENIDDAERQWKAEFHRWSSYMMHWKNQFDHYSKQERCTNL
Amyloid-beta precursor protein (Homo sapiens), sequence (P05067 whole entry): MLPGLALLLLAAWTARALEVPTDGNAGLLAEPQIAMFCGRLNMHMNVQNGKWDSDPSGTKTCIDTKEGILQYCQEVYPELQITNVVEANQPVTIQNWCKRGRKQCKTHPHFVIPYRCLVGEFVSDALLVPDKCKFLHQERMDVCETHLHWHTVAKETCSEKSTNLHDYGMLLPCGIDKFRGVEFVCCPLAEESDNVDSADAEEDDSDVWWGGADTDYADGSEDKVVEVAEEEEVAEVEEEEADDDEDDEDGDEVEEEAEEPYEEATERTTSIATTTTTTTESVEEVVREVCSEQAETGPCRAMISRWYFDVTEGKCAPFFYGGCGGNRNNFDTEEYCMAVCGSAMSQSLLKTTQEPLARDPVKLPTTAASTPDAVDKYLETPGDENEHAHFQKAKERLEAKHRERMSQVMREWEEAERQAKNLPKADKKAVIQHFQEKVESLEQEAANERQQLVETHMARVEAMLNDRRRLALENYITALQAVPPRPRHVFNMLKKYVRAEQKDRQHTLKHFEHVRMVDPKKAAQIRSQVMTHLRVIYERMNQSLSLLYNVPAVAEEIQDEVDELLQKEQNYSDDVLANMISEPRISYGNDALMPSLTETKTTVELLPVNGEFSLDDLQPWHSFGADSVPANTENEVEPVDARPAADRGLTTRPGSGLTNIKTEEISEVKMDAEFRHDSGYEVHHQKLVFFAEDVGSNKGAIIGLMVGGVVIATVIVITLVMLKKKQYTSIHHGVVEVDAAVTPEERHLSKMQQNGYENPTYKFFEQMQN
T1 sequence (P81908 whole entry): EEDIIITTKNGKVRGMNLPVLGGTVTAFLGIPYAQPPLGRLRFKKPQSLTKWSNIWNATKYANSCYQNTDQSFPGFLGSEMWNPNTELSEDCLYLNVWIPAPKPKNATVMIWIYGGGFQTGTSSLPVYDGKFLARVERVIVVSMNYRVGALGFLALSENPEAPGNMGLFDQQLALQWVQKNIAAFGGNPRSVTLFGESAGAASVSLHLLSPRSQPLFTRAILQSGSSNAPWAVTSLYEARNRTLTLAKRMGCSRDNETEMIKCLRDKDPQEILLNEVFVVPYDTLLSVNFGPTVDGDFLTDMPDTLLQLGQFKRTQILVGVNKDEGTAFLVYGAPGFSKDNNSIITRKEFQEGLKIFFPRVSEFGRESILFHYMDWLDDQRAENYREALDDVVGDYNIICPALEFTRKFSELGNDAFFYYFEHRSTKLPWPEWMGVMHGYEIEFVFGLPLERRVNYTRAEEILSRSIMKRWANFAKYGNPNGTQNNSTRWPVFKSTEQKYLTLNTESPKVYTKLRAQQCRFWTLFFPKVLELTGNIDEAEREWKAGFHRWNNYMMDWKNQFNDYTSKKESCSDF
Cholinesterase (Homo sapiens, UniProt P06276), sequence (P06276 whole entry): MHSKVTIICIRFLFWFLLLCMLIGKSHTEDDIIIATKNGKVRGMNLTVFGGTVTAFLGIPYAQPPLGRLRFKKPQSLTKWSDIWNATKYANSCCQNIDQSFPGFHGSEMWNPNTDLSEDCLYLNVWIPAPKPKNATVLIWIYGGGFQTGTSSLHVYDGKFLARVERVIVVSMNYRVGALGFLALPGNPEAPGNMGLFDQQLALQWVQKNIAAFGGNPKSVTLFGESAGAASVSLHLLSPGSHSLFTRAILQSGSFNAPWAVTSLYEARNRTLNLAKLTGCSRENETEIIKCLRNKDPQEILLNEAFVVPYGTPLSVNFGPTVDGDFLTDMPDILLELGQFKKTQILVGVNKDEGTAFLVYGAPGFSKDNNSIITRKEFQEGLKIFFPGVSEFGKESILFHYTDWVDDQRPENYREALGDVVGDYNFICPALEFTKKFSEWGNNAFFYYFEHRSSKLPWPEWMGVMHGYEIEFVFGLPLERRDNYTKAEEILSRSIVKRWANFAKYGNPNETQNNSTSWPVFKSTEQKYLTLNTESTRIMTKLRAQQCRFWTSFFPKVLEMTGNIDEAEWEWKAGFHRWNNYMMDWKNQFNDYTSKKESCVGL
Acetylcholinesterase (Homo sapiens, UniProt P22303), sequence (P22303 whole entry): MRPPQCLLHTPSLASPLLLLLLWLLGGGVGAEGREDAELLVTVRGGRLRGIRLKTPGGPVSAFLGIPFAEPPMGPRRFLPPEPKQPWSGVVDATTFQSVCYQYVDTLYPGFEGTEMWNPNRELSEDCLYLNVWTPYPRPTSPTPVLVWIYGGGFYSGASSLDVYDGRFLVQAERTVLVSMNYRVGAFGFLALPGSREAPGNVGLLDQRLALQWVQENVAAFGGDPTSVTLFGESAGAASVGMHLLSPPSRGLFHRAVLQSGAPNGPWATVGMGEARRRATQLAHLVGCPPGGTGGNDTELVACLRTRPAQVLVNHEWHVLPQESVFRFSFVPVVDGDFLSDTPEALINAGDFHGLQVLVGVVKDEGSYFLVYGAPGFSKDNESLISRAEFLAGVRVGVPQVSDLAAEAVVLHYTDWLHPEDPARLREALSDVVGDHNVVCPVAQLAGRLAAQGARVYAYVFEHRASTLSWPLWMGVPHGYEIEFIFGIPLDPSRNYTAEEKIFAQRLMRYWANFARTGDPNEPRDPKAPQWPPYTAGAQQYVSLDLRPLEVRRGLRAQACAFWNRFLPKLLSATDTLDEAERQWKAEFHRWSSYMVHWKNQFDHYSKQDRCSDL

With `Cc1ccc2[nH]c3c(c2c1)CN(C)CCC3` the IC50 (Cholinesterase [1]) was 7.1 µM and the IC50 (Acetylcholinesterase [2]) was 25 µM.
`Fc1ccc(CN2CCCc3[nH]c4ccccc4c3C2)cc1` gave an IC50 (Cholinesterase [1]) of 1.2 µM, a Ratio IC50 [3] of 10 and an IC50 (Acetylcholinesterase [2]) of 12 µM.
Work on `Fc1ccc(CN2CCCc3[nH]c4ccc(F)cc4c3C2)cc1` yielded an IC50 (Cholinesterase [1]) of 2.9 µM and an IC50 (Acetylcholinesterase [2]) of 4.1 µM.
With `Fc1ccc2[nH]c3c(c2c1)CNCCC3` the IC50 (Cholinesterase [1]) was 4.3 µM and the IC50 (Acetylcholinesterase [2]) was 16 µM.
`CCN(CC)Cc1ccc(CN2CCCc3[nH]c4ccc(F)cc4c3C2)cc1` gave an IC50 (Cholinesterase [1]) of 1.4 µM and an IC50 (Acetylcholinesterase [2]) of 4.8 µM.
In the case of `O=C(c1ccccc1)N1CCCc2[nH]c3ccc(F)cc3c2C1`, the IC50 (Cholinesterase [1]) is reported as 6 µM and the IC50 (Acetylcholinesterase [2]) is reported as 10.6 µM.
`CN1CCCc2[nH]c3ccccc3c2C1` showed an IC50 (Cholinesterase [1]) of 25 µM and an IC50 (Acetylcholinesterase [2]) of 7.1 µM.
Work on `Fc1ccc2[nH]c3c(c2c1)CN(Cc1ccccc1)CCC3` yielded an IC50 (Cholinesterase [1]) of 2.13 µM and an IC50 (Acetylcholinesterase [2]) of 4.96 µM.
In the case of `Cc1ccc2[nH]c3c(c2c1)CN(Cc1ccccc1)CCC3`, the IC50 (Cholinesterase [1]) is reported as 1.2 µM and the IC50 (Acetylcholinesterase [2]) is reported as 6.95 µM.
Work on `Cl.c1ccc(CCCN2CCCc3[nH]c4ccccc4c3C2)cc1` yielded an IC50 (Cholinesterase [1]) of 0.28 µM, a solubility [4] greater than 1000 µM and an inhibition [5] of 38 to 54%. The Ratio IC50 [3] was 10 to 100 and the IC50 (Acetylcholinesterase [2]) was 20 µM.
`Cn1c2c(c3ccccc31)CN(CCc1ccccc1)CCC2` gave an IC50 (Cholinesterase [1]) of 0.86 µM, an inhibition [5] of 38 to 54% and a Ratio IC50 [3] of 10 to 100. For the same compound, the IC50 (Acetylcholinesterase [2]) was 12 µM.
`c1ccc2c3c([nH]c2c1)CCCNC3` gave an IC50 (Cholinesterase [1]) of 20 µM and an IC50 (Acetylcholinesterase [2]) of 70 µM.
With `Cl.c1ccc(CCCCN2CCCc3[nH]c4ccccc4c3C2)cc1` the Ratio IC50 [6] was greater than 100, the Ki (Cholinesterase [7]) was 0.098 µM and the IC50 (Cholinesterase [1]) was 0.17 µM. It also gave a solubility [4] greater than 1000 µM, an inhibition [5] of 38 to 54% and an Activity (SH-SY5Y [8]) of 35%. For the same compound, the Ratio IC50 [3] was greater than 100, the Activity (SH-SY5Y [9]) was 30% and the IC50 (Acetylcholinesterase [10]) was 20 µM. The Activity (SH-SY5Y [11]) was “Dose-dependent effect”, the IC50 (SH-SY5Y [11]) was 10.1 µM and the Activity (SH-SY5Y [12]) was “Tde”. For the same compound, the Activity (SH-SY5Y [13]) was 30%, the IC50 (Cholinesterase [14]) was 0.199 µM and the IC50 (Acetylcholinesterase [2]) was 20 µM.
`Cc1ccc(CN2CCCc3[nH]c4ccccc4c3C2)cc1` showed an IC50 (Cholinesterase [1]) of 0.95 µM, a Ratio IC50 [3] of 10 and an IC50 (Acetylcholinesterase [2]) of 10 µM.
Compound `Fc1ccc2[nH]c3c(c2c1)CN(Cc1ccc(CN2CCCC2)cc1)CCC3` has an IC50 (Cholinesterase [1]) of 4.3 µM and an IC50 (Acetylcholinesterase [2]) of 7.9 µM.
With `c1ccc(CN2CCCc3[nH]c4ccccc4c3C2)cc1` the IC50 (Cholinesterase [1]) was 2 µM, the inhibition [5] was 38 to 54% and the IC50 (Acetylcholinesterase [2]) was 8.7 µM.
`Cc1ccc2[nH]c3c(c2c1)CNCCC3` showed an IC50 (Cholinesterase [1]) of 8 µM and an IC50 (Acetylcholinesterase [2]) of 45 µM.
With `O=c1c(O)c(-c2ccc(O)c(O)c2)oc2cc(O)cc(O)c12` the Activity (SH-SY5Y [15]) was “Active” and the inhibition [16] was “Active”.
`Fc1ccc2[nH]c3c(c2c1)CCCN(Cc1ccccc1)C3` showed an IC50 (Cholinesterase [1]) of 3.4 µM and an IC50 (Acetylcholinesterase [2]) of 10.7 µM.
`Cl.c1ccc(CCN2CCCc3[nH]c4ccccc4c3C2)cc1` showed an IC50 (Cholinesterase [1]) of 0.7 µM, a solubility [4] greater than 1000 µM and an inhibition [5] of 38 to 54%. For the same compound, the Ratio IC50 [3] was 10 to 100 and the IC50 (Acetylcholinesterase [2]) was 9 µM.

Source: ChEMBL document CHEMBL4393727, “Investigating 1,2,3,4,5,6-hexahydroazepino[4,3-b]indole as scaffold of butyrylcholinesterase-selective inhibitors with additional neuroprotective activities for Alzheimer's disease” (Eur J Med Chem, 2019)
